Measurements: ChEMBL document CHEMBL4651402, “Screening of ~5500 FDA-approved drugs and clinical candidates for anti-SARS-CoV-2 activity” (2021)

Tested on: SARS-CoV-2
Assay: microbe, parasite or virus in culture
Conditions: Severe acute respiratory syndrome coronavirus 2, Vero C1008, 48 h

SMILES: CN1C(=O)CC(C)(c2ccccc2)C1=O (stereo unspecified) [METHSUXIMIDE]
- IC50: > 20 µM
- IC50 (read-out: pIC50 (converted)): > 20 µM

SMILES: CCCCCCCCCCCCCCC1(C(=O)OC)CO1 (stereo unspecified) [METHYL PALMOXIRATE]
- IC50: > 20 µM
- IC50 (read-out: pIC50 (converted)): > 20 µM

SMILES: CC[N+](C)(CC)CCOC(=O)C(O)(c1ccccc1)c1ccccc1 [METHYLBENACTYZIUM]
- IC50: > 20 µM
- IC50 (read-out: pIC50 (converted)): > 20 µM

SMILES: Cc1cc(C(C)(C)CC(C)(C)C)ccc1OCCOCC[N+](C)(C)Cc1ccccc1 [METHYLBENZETHONIUM]
- IC50: > 20 µM
- IC50 (read-out: pIC50 (converted)): > 20 µM

SMILES: CC(N)(Cc1ccc(O)c(O)c1)C(=O)O (stereo not drawn) [METHYLDOPA (RACEMIC)]
- IC50: > 20 µM
- IC50 (read-out: pIC50 (converted)): > 20 µM

SMILES: CCOC(=O)[C@@](C)(N)Cc1ccc(O)c(O)c1 [METHYLDOPATE]
- IC50: > 20 µM
- IC50 (read-out: pIC50 (converted)): > 20 µM

SMILES: C[N+]1(CC2CC2)CC[C@]23c4c5ccc(O)c4O[C@H]2C(=O)CC[C@@]3(O)[C@H]1C5 (stereo partly specified) [METHYLNALTREXONE]
- IC50: > 20 µM
- IC50 (read-out: pIC50 (converted)): > 20 µM

SMILES: COC(=O)c1ccc(O)cc1 [METHYLPARABEN]
- IC50: > 20 µM
- IC50 (read-out: pIC50 (converted)): > 20 µM

SMILES: C[C@H]1C[C@@H]2[C@H]([C@@H](O)C[C@@]3(C)[C@H]2CC[C@]3(O)C(=O)CO)[C@@]2(C)C=CC(=O)C=C12 [METHYLPREDNISOLONE]
- IC50: > 20 µM
- IC50 (read-out: pIC50 (converted)): > 20 µM

SMILES: C[C@]12CCC(=O)C=C1CC[C@@H]1[C@@H]2CC[C@@]2(C)[C@H]1CC[C@]2(C)O [METHYLTESTOSTERONE]
- IC50: > 20 µM
- IC50 (read-out: pIC50 (converted)): > 20 µM

SMILES: Cc1cc(=O)[nH]c(=S)[nH]1 [METHYLTHIOURACIL]
- IC50: > 20 µM
- IC50 (read-out: pIC50 (converted)): > 20 µM

SMILES: CN1c2ccccc2Sc2ccc(CC(=O)O)cc21 [METIAZINIC ACID]
- IC50: > 20 µM
- IC50 (read-out: pIC50 (converted)): > 20 µM

SMILES: COc1cc(Cc2cnc(N)nc2N)cc(OC)c1SC [METIOPRIM]
- IC50: > 20 µM
- IC50 (read-out: pIC50 (converted)): > 20 µM

SMILES: CSc1ccc2c(c1)C(N1CCN(C)CC1)Cc1ccccc1S2 (stereo unspecified) [METITEPINE]
- IC50: > 20 µM
- IC50 (read-out: pIC50 (converted)): > 20 µM

SMILES: Cc1sc2ccccc2c1CC1=NCCN1 [METIZOLINE]
- IC50: > 20 µM
- IC50 (read-out: pIC50 (converted)): > 20 µM

SMILES: CCN(CC)CCNC(=O)c1cc(Cl)c(N)cc1OC [METOCLOPRAMIDE]
- IC50: > 20 µM
- IC50 (read-out: pIC50 (converted)): > 20 µM

SMILES: Cc1ccccc1N1C(=O)c2cc(S(N)(=O)=O)c(Cl)cc2NC1C (stereo unspecified) [METOLAZONE]
- IC50: > 20 µM
- IC50 (read-out: pIC50 (converted)): > 20 µM

SMILES: CS(=O)(=O)c1ccc2c(c1)N(CCCN1CCC(C(N)=O)CC1)c1ccccc1S2 [METOPIMAZINE]
- IC50: > 20 µM
- IC50 (read-out: pIC50 (converted)): > 20 µM

SMILES: Cc1nc(N)nc(N)c1-c1ccc(Cl)c(Cl)c1 [METOPRINE]
- IC50: > 20 µM
- IC50 (read-out: pIC50 (converted)): > 20 µM

SMILES: COCCc1ccc(OCC(O)CNC(C)C)cc1 (stereo unspecified) [METOPROLOL]
- IC50: > 20 µM
- IC50 (read-out: pIC50 (converted)): > 20 µM

SMILES: CC(=O)Nc1c(I)c(C(=O)N[C@H]2C(O)O[C@H](CO)[C@@H](O)[C@@H]2O)c(I)c(N(C)C(C)=O)c1I (stereo partly specified) [METRIZAMIDE]
- IC50: > 20 µM
- IC50 (read-out: pIC50 (converted)): > 20 µM

SMILES: Cc1ncc([N+](=O)[O-])n1CCO [METRONIDAZOLE]
- IC50: > 20 µM
- IC50 (read-out: pIC50 (converted)): > 20 µM

SMILES: CC(C)(C(=O)c1cccnc1)c1cccnc1 [METYRAPONE]
- IC50: > 20 µM
- IC50 (read-out: pIC50 (converted)): > 20 µM

SMILES: CC[C@H](C)C(=O)O[C@H]1CCC=C2C=C[C@H](C)[C@H](CC[C@@H]3C[C@@H](O)CC(=O)O3)[C@H]21 [MEVASTATIN]
- IC50: > 20 µM
- IC50 (read-out: pIC50 (converted)): > 20 µM

SMILES: COc1ccc(C(=O)c2ccc(C)cc2)c(O)c1 [MEXENONE]
- IC50: > 20 µM
- IC50 (read-out: pIC50 (converted)): > 20 µM

SMILES: CN1CCN2c3ccccc3Cc3ccccc3C2C1 (stereo unspecified) [MIANSERIN]
- IC50: > 20 µM
- IC50 (read-out: pIC50 (converted)): > 20 µM

SMILES: c1ccc(C(CC2=NCCN2)c2ccccn2)cc1 (stereo unspecified) [MIDAGLIZOLE]
- IC50: > 20 µM
- IC50 (read-out: pIC50 (converted)): > 20 µM

SMILES: COc1ccc(OC)c(C(O)CNC(=O)CN)c1 (stereo unspecified) [MIDODRINE]
- IC50: > 20 µM
- IC50 (read-out: pIC50 (converted)): > 20 µM

SMILES: CC(C)/N=C/Nc1ccc(-c2c[nH]cn2)cc1 [MIFENTIDINE]
- IC50: > 20 µM
- IC50 (read-out: pIC50 (converted)): > 20 µM

SMILES: CC#C[C@]1(O)CC[C@H]2[C@@H]3CCC4=CC(=O)CCC4=C3[C@@H](c3ccc(N(C)C)cc3)C[C@@]21C [MIFEPRISTONE]
- IC50: > 25.1 µM
- IC50 (read-out: pIC50 (converted)): > 25.1 µM

SMILES: COP(=O)(OC)OC(c1ccc(Cl)cc1)P(=O)(OC)OC (stereo unspecified) [MIFOBATE]
- IC50: > 20 µM
- IC50 (read-out: pIC50 (converted)): > 20 µM

SMILES: OCCN1C[C@H](O)[C@@H](O)[C@H](O)[C@H]1CO [MIGLITOL]
- IC50: > 20 µM
- IC50 (read-out: pIC50 (converted)): > 20 µM

SMILES: CO/N=C/C1=CCCN(C)C1 [MILAMELINE]
- IC50: > 20 µM
- IC50 (read-out: pIC50 (converted)): > 20 µM

SMILES: COc1cc2[nH]c(C)c(CCN3CCN(c4ccccc4OC)CC3)c2cc1OC [MILIPERTINE]
- IC50: > 20 µM
- IC50 (read-out: pIC50 (converted)): > 20 µM

SMILES: Cc1[nH]c(=O)c(C#N)cc1-c1ccncc1 [MILRINONE]
- IC50: > 20 µM
- IC50 (read-out: pIC50 (converted)): > 20 µM

SMILES: Cc1cc(-c2ccccc2)nnc1NCCN1CCOCC1 [MINAPRINE]
- IC50: > 20 µM
- IC50 (read-out: pIC50 (converted)): > 20 µM

SMILES: CCCc1c2nc(C(=O)O)cc(NC)c2cc2c(=O)cc(C(=O)O)oc12 [MINOCROMIL]
- IC50: > 20 µM
- IC50 (read-out: pIC50 (converted)): > 20 µM

SMILES: CN(C)c1ccc(O)c2c1C[C@H]1C[C@H]3[C@H](N(C)C)C(O)=C(C(N)=O)C(=O)[C@@]3(O)C(O)=C1C2=O [MINOCYCLINE]
- IC50: > 20 µM
- IC50 (read-out: pIC50 (converted)): > 20 µM

SMILES: Nc1cc(N2CCCCC2)nc(N)[n+]1[O-] [MINOXIDIL]
- IC50: > 20 µM
- IC50 (read-out: pIC50 (converted)): > 20 µM

SMILES: O=c1[nH]c(=O)c(Cc2cccc(C(F)(F)F)c2)c([C@H]2CC[C@H](c3ccccc3)CC2)[nH]1 [MIRICORILANT]
- IC50: > 20 µM
- IC50 (read-out: pIC50 (converted)): > 20 µM

SMILES: CN1CCN2c3ncccc3Cc3ccccc3C2C1 (stereo unspecified) [MIRTAZAPINE]
- IC50: > 20 µM
- IC50 (read-out: pIC50 (converted)): > 20 µM

SMILES: COCC(O)Cn1ccnc1[N+](=O)[O-] (stereo unspecified) [MISONIDAZOLE]
- IC50: > 20 µM
- IC50 (read-out: pIC50 (converted)): > 20 µM

SMILES: CCCCC(C)(O)C/C=C/[C@H]1[C@H](O)CC(=O)[C@@H]1CCCCCCC(=O)OC (stereo partly specified) [MISOPROSTOL]
- IC50: > 20 µM
- IC50 (read-out: pIC50 (converted)): > 20 µM

SMILES: CCc1ccc(C(=O)COc2ccc(CC3SC(=O)NC3=O)cc2)nc1 (stereo unspecified) [MITOGLITAZONE]
- IC50: > 20 µM
- IC50 (read-out: pIC50 (converted)): > 20 µM

SMILES: CO[C@@]12[C@H](COC(N)=O)C3=C(C(=O)C(C)=C(N)C3=O)N1C[C@@H]1N[C@@H]12 [MITOMYCIN]
- IC50: > 20 µM
- IC50 (read-out: pIC50 (converted)): > 20 µM

SMILES: Clc1ccc(C(c2ccccc2Cl)C(Cl)Cl)cc1 (stereo unspecified) [MITOTANE]
- IC50: > 20 µM
- IC50 (read-out: pIC50 (converted)): > 20 µM

SMILES: O=C1c2c(O)ccc(O)c2C(=O)c2c(NCCNCCO)ccc(NCCNCCO)c21 [MITOXANTRONE]
- IC50: > 20 µM
- IC50 (read-out: pIC50 (converted)): > 20 µM

SMILES: O=C(CN1C(=O)C2(CCCC2)NC[C@H]1c1cc(F)cc(F)c1)Nc1ccc2c(c1)C[C@@]1(C2)C(=O)Nc2ncccc21 [MK3207]
- IC50: > 20 µM
- IC50 (read-out: pIC50 (converted)): > 20 µM

SMILES: CN(C)C(=O)CCSC(SCCC(=O)O)c1cccc(/C=C/c2ccc3ccc(Cl)cc3n2)c1 (stereo unspecified) [MK-571]
- IC50: > 20 µM
- IC50 (read-out: pIC50 (converted)): > 20 µM

SMILES: CCn1ncnc1COc1nn2c(-c3ccccc3F)nnc2cc1C(C)(C)C [MK-0777]
- IC50: > 20 µM
- IC50 (read-out: pIC50 (converted)): > 20 µM

SMILES: NC1(c2ccc(-c3nc4ccn5c(=O)[nH]nc5c4cc3-c3ccccc3)cc2)CCC1 [MK-2206]
- IC50: > 20 µM
- IC50 (read-out: pIC50 (converted)): > 20 µM

SMILES: Cc1ccc(Cc2cc3c(=O)n([C@H]4CCCC[C@@H]4O)cnc3c3ccccc23)cn1 [MK-7622]
- IC50: > 20 µM
- IC50 (read-out: pIC50 (converted)): > 20 µM
